Experimental data published in paper PMC4577212, “X-Ray Structure and Mutagenesis Studies of the N-Isopropylammelide Isopropylaminohydrolase, AtzC” (PLoS ONE, 2015).

Target: T1, AtzC (N-isopropylammelide isopropylaminohydrolase) (Pseudomonas sp. ADP, UniProt O52063)
T1 construct: full length, N-terminal His-tag (pETCC2, from pET14b), expressed in E. coli BL21(DE3); tag cut with thrombin for crystals; homotetramer ~210 kDa; Zn enzyme
T1 sequence (O52063 1-403): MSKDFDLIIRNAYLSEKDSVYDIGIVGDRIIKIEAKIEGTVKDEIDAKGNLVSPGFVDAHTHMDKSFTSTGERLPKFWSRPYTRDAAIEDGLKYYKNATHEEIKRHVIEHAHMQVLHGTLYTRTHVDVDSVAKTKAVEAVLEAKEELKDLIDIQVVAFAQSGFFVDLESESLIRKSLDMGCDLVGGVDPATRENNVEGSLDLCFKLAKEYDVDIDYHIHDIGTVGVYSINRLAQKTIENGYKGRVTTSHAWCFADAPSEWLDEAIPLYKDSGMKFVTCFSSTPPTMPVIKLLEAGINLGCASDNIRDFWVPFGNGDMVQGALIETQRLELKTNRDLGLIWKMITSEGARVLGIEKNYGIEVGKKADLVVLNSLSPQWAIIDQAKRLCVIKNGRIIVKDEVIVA
Assay: X-ray crystal structure, […] Å
Assay type: binding
Settings: crystals from 2.4 M sodium malonate pH 7; active site; tag cut with thrombin

In the case of `O=C(O)CC(=O)O` [malonic acid], the “X-ray crystal structure, 1.84 Å” value is reported as “The malonate (a poor inhibitor of AtzC, Figure E in S1 File) adopts a planar conformation”.
